Test results published in BindingDB's records for doi:10.1016/j.bmc.2006.06.019 (University of Tennessee Health Science Center, 2006).

These compounds were tested against T1, Androgen receptor (Rattus norvegicus, UniProt P15207) (assay: Competitive Radioligand Displacement Assay). Settings: pH 7.4; 4 °C.
T1 sequence (P15207 whole entry): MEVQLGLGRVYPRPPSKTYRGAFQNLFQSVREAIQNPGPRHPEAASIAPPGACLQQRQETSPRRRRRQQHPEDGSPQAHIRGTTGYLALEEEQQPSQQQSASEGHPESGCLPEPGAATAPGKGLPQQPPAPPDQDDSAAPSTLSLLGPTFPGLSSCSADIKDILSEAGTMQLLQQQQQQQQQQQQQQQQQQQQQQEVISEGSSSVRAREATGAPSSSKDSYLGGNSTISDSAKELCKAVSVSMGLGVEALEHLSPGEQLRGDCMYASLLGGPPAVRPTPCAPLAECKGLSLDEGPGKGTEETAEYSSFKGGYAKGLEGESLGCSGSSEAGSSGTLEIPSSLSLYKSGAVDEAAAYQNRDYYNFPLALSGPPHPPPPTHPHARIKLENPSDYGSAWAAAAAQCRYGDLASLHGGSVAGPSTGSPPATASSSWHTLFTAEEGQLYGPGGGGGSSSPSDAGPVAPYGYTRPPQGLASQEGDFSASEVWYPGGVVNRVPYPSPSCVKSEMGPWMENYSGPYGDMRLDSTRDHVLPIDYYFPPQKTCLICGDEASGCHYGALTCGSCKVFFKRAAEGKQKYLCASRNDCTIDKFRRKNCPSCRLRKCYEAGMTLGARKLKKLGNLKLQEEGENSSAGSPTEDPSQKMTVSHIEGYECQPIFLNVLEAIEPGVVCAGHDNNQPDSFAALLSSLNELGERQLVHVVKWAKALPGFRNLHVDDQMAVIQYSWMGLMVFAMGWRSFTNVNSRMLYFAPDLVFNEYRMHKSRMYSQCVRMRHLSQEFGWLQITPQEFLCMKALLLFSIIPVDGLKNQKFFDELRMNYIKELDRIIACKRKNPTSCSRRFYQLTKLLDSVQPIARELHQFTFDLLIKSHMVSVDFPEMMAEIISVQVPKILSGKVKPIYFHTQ
Experimental: The Ki values were determined by the application of the Cheng-Prusoff equation: Ki = (IC50 x Kd)/(Kd+[L]) where [L] is the concentration of [3H]MIB (1 nM ) and Kd is the dissociation constant of the [3H]MIB determined in the saturation analysis (Kd=0.19 nM for MIB).

First: C[C@@](O)(COc1ccc(N=C=S)cc1)C(=O)Nc1ccc([N+](=O)[O-])c(C(F)(F)F)c1 [(2R)-2-hydroxy-3-(4-isothiocyanatophenoxy)-2-methyl-N-[4-nitro-3-(trifluoromethyl)phenyl]propanamide]
Second: C[C@](O)(CSc1ccc(N=C=S)cc1)C(=O)Nc1ccc([N+](=O)[O-])c(C(F)(F)F)c1 [(2R)-2-hydroxy-3-[(4-isothiocyanatophenyl)sulfanyl]-2-methyl-N-[4-nitro-3-(trifluoromethyl)phenyl]propanamide]
The Ki of the first is 1.5-fold lower: 36.2 nM for the first, 54.8 nM for the second. The first binds more tightly here.

In the case of `C[C@](O)(COc1ccc(N=C=S)c(F)c1)C(=O)Nc1ccc([N+](=O)[O-])c(C(F)(F)F)c1` [(2S)-3-(3-fluoro-4-isothiocyanatophenoxy)-2-hydroxy-2-methyl-N-[4-nitro-3-(trifluoromethyl)phenyl]propanamide], the Ki is reported as 12.6 nM.
